Assay results reported in PubChem BioAssay (NCI).
Values joined by “and” are separate entries in the source; they are usually repeats but may differ in a detail not shown here. Equal values may be shown once.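 Results reflect a 48-hour exposure of cells in 96-well plates to compound at five concentrations. GI50: concentration for 50% inhibition of growth. TGI is the concentration that stops growth completely.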

How the values were obtained:
Assay in all cases: NCI tumour cell line growth inhibition, 48 h
DMS 273 small cell lung = test system: DMS 273 small cell lung
HOP-18 NSCLC = test system: HOP-18 NSCLC
LXFL 529 NSCLC = test system: LXFL 529 NSCLC
M19-MEL melanoma = test system: M19-MEL melanoma
RXF-631 renal = test system: RXF-631 renal
SNB-78 CNS = test system: SNB-78 CNS
XF 498 CNS = test system: XF 498 CNS
DMS 114 small cell lung = test system: DMS 114 small cell lung
MDA-N = test system: MDA-N
P388/ADR leukemia = test system: P388/ADR leukemia
SN12K1 renal = test system: SN12K1 renal

SMILES | TGI (DMS 273 small cell lung) | TGI (HOP-18 NSCLC) | TGI (LXFL 529 NSCLC) [µM] | TGI (M19-MEL melanoma) | TGI (RXF-631 renal) [µM] | TGI (SNB-78 CNS) | TGI (XF 498 CNS) | TGI (DMS 114 small cell lung) | TGI (MDA-N) | also measured
COC1CC(OS(=O)(=O)c2ccc([N+](=O)[O-])cc2)C(OC(=O)c2ccccc2)C(C)O1 (centres undefined) | > 100 µM | > 100 µM | > 100 | > 100 µM | > 100 | > 100 µM | > 100 µM |  |  | 
CC(C)C1CC[C@@H](C)C[C@@]1(O)CC(N)=O (some centres undefined) | > 100 µM | > 100 µM | > 100 | > 100 µM | > 100 | > 100 µM | 0.856 µM | > 100 µM |  | 
COc1cc2ccc(/C=C\[N+](=O)[O-])cc2cc1OC |  |  |  |  |  |  |  |  | 5.78 µM | 
CC(=O)OCC1OC(n2cnc(C(N)=S)c2N)C(OC(C)=O)C1OC(C)=O (centres undefined) |  |  |  |  |  |  |  |  | > 100 µM | 
CCOC(=O)N1CCN(C=S)CC1 | > 100 µM | > 100 µM | > 100 | > 100 µM | > 100 | > 100 µM |  | > 100 µM |  | 
O=[N+]([O-])O.[Cu+2].[NH-]CC[NH-].[NH-]CC[NH-] |  |  |  |  |  |  |  |  | > 10 µM | GI50 (MDA-N): > 10 µM
Cn1cc(C(=O)NCCC(=N)N)cc1NC(=O)C1=[N+](C)C=C(NC(=O)c2cccc(C(=O)NC3=CC(C(=O)Nc4cc(C(=O)NCCC(=N)N)cn4C)=[N+](C)C3)c2)C1 | > 100 µM | > 100 µM | > 100 | > 100 µM |  |  | > 100 µM | > 100 µM |  | 
CCC1C2Cc3ccc(O)cc3C1(CC)CCN2C (centres undefined) |  |  |  |  |  |  |  |  | > 100 µM | 
Nc1ccnc(=O)[nH]1 | > 100 µM | > 100 µM | > 100 | > 100 µM | > 100 | > 100 µM | > 100 µM | > 100 µM |  | 
CCCCNc1nc(C#N)c(N)s1 | > 100 µM |  | > 100 |  | > 100 | > 100 µM | > 100 µM |  |  | 
O=C(O)C(SC(=S)c1ccc(C(=S)SC(C(=O)O)c2ccccc2)cc1)c1ccccc1 (centres undefined) | > 100 µM |  | > 100 |  | > 100 | > 100 µM | > 100 µM | > 100 µM |  | 
CCc1cc(C(=O)OC)cn1C(=N)c1ccc(Cl)cc1 | > 100 µM | > 100 µM | > 100 | > 100 µM |  | > 100 µM | > 100 µM | > 100 µM |  | 
CCOc1ccc2c(c1)[n+]([O-])c(-c1ccc(Cl)cc1)c(N)[n+]2[O-] | > 100 µM | > 100 µM | > 100 |  |  | > 100 µM |  | > 100 µM |  | 
Cc1ccc(S(=O)(=O)N/N=C/c2c(O)ccc3ccccc23)cc1 |  |  |  |  |  |  |  |  | > 100 µM | 
Cc1ccc(Nc2n[nH]c(=S)s2)cc1C |  |  |  |  |  |  |  |  | > 100 µM | 
Cc1ccc(S(=O)(=O)OC2CSS(=O)CC2OS(=O)(=O)c2ccc(C)cc2)cc1 (centres undefined) | 35.3 µM | 37.6 µM | 27.7 | 30.5 µM | 30.4 | 58.9 µM | 26.6 µM | 32.2 µM |  | 
CC(=O)CC(=O)OC1CC(C)CCC1C(C)C (centres undefined) | > 100 µM |  | > 100 | > 100 µM | > 100 | > 100 µM | > 100 µM | > 100 µM |  | 
CCN(CC)c1c(C(=O)/C=C/c2ccc(OC)cc2)c(-c2ccccc2)nn(C)c1=O | 5.13 µM | 51.7 µM | > 100 | > 100 µM | > 100 | > 100 µM |  | 32.3 µM |  | 
O=C(O)CNC(=O)c1ccc(-c2ccccc2)cc1 |  |  |  |  |  |  |  |  | > 100 µM | 
Cc1ccc2nc(NC(=O)C(=O)C(C#N)c3nc4ccccc4s3)sc2c1 (centres undefined) | > 100 µM | > 100 µM | > 100 | > 100 µM | > 100 | > 100 µM | 63.9 µM | 70.1 µM |  | 
CC1CCC(NC(=O)N(CCCl)N=O)CC1 (centres undefined) | 82.3 µM and 74 µM | 62.8 µM | 28.7 | 98 µM |  | 88.7 µM and 110 µM | 43.5 µM and 81.2 µM | 40.4 µM and 87.3 µM | 90.1 µM | GI50 (DMS 114 small cell lung): 19 µM; GI50 (DMS 273 small cell lung): 26.6 µM; GI50 (M19-MEL melanoma): 53.1 µM; TGI (P388/ADR leukemia): 56.8 µM; TGI (SN12K1 renal): 67 µM; GI50 (SNB-78 CNS): 20.1 µM; GI50 (XF 498 CNS): 16.4 µM

SMILES | TGI (DMS 273 small cell lung) | TGI (HOP-18 NSCLC) | TGI (LXFL 529 NSCLC) [µM] | TGI (M19-MEL melanoma) | TGI (RXF-631 renal) [µM] | TGI (SNB-78 CNS) | TGI (XF 498 CNS) | TGI (DMS 114 small cell lung) | TGI (MDA-N) | also measured
COc1ccc(Br)c(N/N=C2\CCCNC2=O)c1 | > 100 µM | > 100 µM | > 100 | > 100 µM | > 100 | > 100 µM | > 100 µM | > 100 µM |  | 
N#CC(NC12CC3CC(CC(C3)C1)C2)c1ccc2c(c1)OCO2 (centres undefined) |  |  |  |  |  |  |  |  | > 100 µM | 
COc1c(C)c2c(c(O)c1C/C=C(\C)CCC(=O)O)C(=O)OC2 | > 100 µM | > 100 µM | > 100 | > 100 µM |  |  |  | 78.3 µM | > 100 µM | 
CCS(CC)(CC)CC1CCCC2=CCC(P(=O)(c3ccccc3)c3ccccc3)CC21 (centres undefined) | 26.4 µM | 40.3 µM | 22.4 | 36.5 µM | 31.5 | 37.1 µM | 17.4 µM | 24.8 µM |  | 
CCC[CH2][Sn]1([CH2]CCC)[O]C(=O)c2cccnc2[O]1 | 11.3 µM |  | 2.22 | 15.3 µM | 2.73 | 7.73 µM | 2.92 µM | 4.05 µM |  | GI50 (DMS 114 small cell lung): 1.95 µM; GI50 (DMS 273 small cell lung): 2.37 µM; GI50 (LXFL 529 NSCLC): 0.849 µM; GI50 (M19-MEL melanoma): 4.26 µM; GI50 (RXF-631 renal): 1.43 µM; GI50 (SNB-78 CNS): 2.07 µM; GI50 (XF 498 CNS): 1.38 µM
CN1C(=Nc2ccccc2)SC1=Nc1ccccc1 | > 100 µM | > 100 µM | > 100 | 65.2 µM |  | > 100 µM | 73.3 µM | > 100 µM |  | 
COc1ccc2nc3cccc([N+](=O)[O-])c3c(NCCCCCC(=O)O)c2c1 |  |  |  |  |  |  |  |  | 0.117 µM | GI50 (MDA-N): 0.0263 µM
CN(C)CC/C(=N\Nc1ccc([N+](=O)[O-])cc1)c1ccccc1 | 22.3 µM | 20.5 µM | 19.3 |  |  | 20 µM |  | 18 µM |  | 
Cc1cc(O)c(C(C)C)cc1S(=O)(=O)O (tested in a mixture with another compound) | > 100 µM |  | > 100 | > 100 µM |  | > 100 µM |  | > 100 µM |  | 
O=C(O)C(/C=C/c1ccccc1)c1ccccc1 (centres undefined) |  |  |  |  |  |  |  |  | > 100 µM | 
COC(=O)C1(C)CCC(c2ccc(C)cc2)=C(CC(=O)O)C1 (centres undefined) |  |  |  |  |  |  |  |  | > 100 µM | 
O=[N+]([O-])c1cc(C(F)(F)F)cc([N+](=O)[O-])c1CCl | 2.62 µM | 3.6 µM | 0.639 | 3.64 µM | 10.4 | 10.6 µM |  | 1.95 µM |  | 
Cc1cc(=O)n(-c2ccccc2C)c(C)n1 | > 100 µM | > 100 µM | > 100 | > 100 µM | > 100 | > 100 µM |  | > 100 µM |  | 
CCC(C)(CC(C)(C)C(=O)NCC(=O)NC(Cc1ccccc1)C(=O)NC(Cc1ccccc1)C(=O)NCC(=O)NC1CC(OC2CC(O)(C(=O)CO)Cc3c(O)c4c(c(O)c32)C(=O)c2c(OC)cccc2C4=O)OC(C)C1O)C(=O)NCC(C)O (centres undefined) |  |  |  |  |  |  |  |  | > 150 µg/mL | GI50 (MDA-N): 120 µg/mL
COc1cc(C[C@H]2c3cc(OC)c(OC)cc3CCN2C)c(Oc2cc3c(cc2OC)-c2c(OC)c(OC)cc4c2[C@H](C3)N(C)CC4)cc1OC | 27.6 µM and 28.1 µM | 40.9 µM and 29.9 µM | 23.6 | 16.8 µM and 24.6 µM | 19.8 |  | 16.4 µM and 16.3 µM | 18 µM and 14.4 µM | 13.1 µM | GI50 (DMS 114 small cell lung): 4 µM; GI50 (DMS 273 small cell lung): 14.6 µM; GI50 (HOP-18 NSCLC): 20.1 µM and 15.8 µM; GI50 (M19-MEL melanoma): 11.9 µM; TGI (P388/ADR leukemia): 27.9 µM; TGI (SN12K1 renal): 15.4 µM; GI50 (XF 498 CNS): 6.8 µM
COc1cc2c(c(OC)c1OC)-c1ccc(SC)c(=O)cc1C(CO)C2 (centres undefined) |  | > 100 µM | > 100 | > 100 µM | > 100 |  | 0.605 µM |  |  | GI50 (DMS 114 small cell lung): < 0.01 µM; GI50 (LXFL 529 NSCLC): < 0.01 µM; GI50 (M19-MEL melanoma): < 0.01 µM
COc1cc(OC(=O)c2ccccc2)cc2c1C(=O)C=CC2=O | 40.5 µM | 41.5 µM | 25.5 | 25.9 µM | 41.5 | 41.4 µM | 31.4 µM | 30.2 µM | 18.8 µM | 
OC(c1ccccc1)(c1ccccc1)c1ccncc1 | > 100 µM | > 100 µM | > 100 | > 100 µM |  | > 100 µM | > 100 µM | > 100 µM |  | 
c1ccc2c(c1)cc(C1NCCc3[nH]cnc31)c1ccccc12 (centres undefined) | 87.9 µM | > 100 µM | > 63.5 | > 59.5 µM | > 100 | > 100 µM | 79 µM | > 64.3 µM |  | 
O=C1c2ccccc2C(O)(O)C1(O)C1(O)C(=O)c2ccccc2C1(O)O (centres undefined) |  |  |  |  |  |  |  |  | 48 µM | 
